Measurements as given in patent EP0168522A2, “Active agent-containing shaped article” (Akzo Patente GmbH, priority 1983, dated 1986).
Values after ≈ are worked out from the molar mass of the structure shown.

Assay: Water solubility of the active agent
Format: physicochemical
Conditions: in water; read-out: Wasserlöslichkeit

Row | Compound | solubility [mg/mL]
1 | CC(=O)Nc1ccc(O)cc1 [Acetaminophen] | 14 (≈ 92.6 mM)
2 | Oc1ccc(O)cc1 [Hydrochinon] | ~70 (≈ 636 mM)
